Reference: patent publication US7576071B2, “Antithrombotic compound” (sanofi-aventis, priority 2004, dated 2009)
Read-outs that look alike come from different tables or passages of the source.

What was measured:
[1] = system: washed human platelets, TRAP-induced aggregation; assay: In vitro test for inhibition of human platelet aggregation induced by TRAP; assay type: cell-based; conditions: Platelet
From the text: I.b. In vitro Test for Inhibition of Human Platelet Aggregation Induced by TRAP
Introduction: Addition of trombin receptor agonist peptide (TRAP) to washed human platelets (WPL) in vitro induces platelet aggregation. This aggregation can be determined by measuring the optical density of the WPL. The in vitro test described here is used to analyze the activity of a test compound to inhibit TRAP-induced aggregation of human platelets. A micro plate reader is used to measure the activity of several compounds simultaneously.
(§1) An alternative vehicle is 0.9% NaCl in MQ H2O. The compound solution (either in MQ H2O or 0.9% NaCl in MQ H2O) is further diluted in 0.9% NaCl in MQ H2O.
Free-flowing blood (at least 100 mL) is taken from a healthy volunteer and collected in 0.1 volume 3.8% sodium citrate. 2H2O in MQ H2O (w/v). The final concentration is 0.38% sodium citrate. The citrated blood is centrifuged at 1,600 N/kg (160 g) in Hettich Rotanta/AP centrifuge (750 rpm) at RT. After 15 min, centrifugation is discontinued with the brake turned off and the supernatant (=PRP) is collected. • 2. Washed platelets (WPL):
After adding freshly made 1 μL PGI2 solution per ml PRP, the suspension is centrifuged at 13,500 N/kg (1,350 g) for 10 min in a Hettich Rotanta/AP centrifuge (i.e., 2,800 rpm) at RT. After gentle resuspension of the pellet in the same volume of fresh Watson buffer containing 5 ng/mL PGI2, the suspension is centrifuged at 1,350 g (2,800 rpm) for 10 min at RT again. The final platelet pellet is resuspended in Watson buffer to give approx. 400,000±50,000 platelets/[…]. • 3. Watson buffer:
134 mM NaCl, 2.9 mM KCl, 12 mM NaHCO3, 0.34 mM Na2HPO4.2H2O, 1 mM MgCl2.6H2O, 5 mM Glucose and 5 mM HEPES in MQ H2O. The pH is adjusted to 7.4 with 1 M NaOH. • 4. Prostaglandin I2 (Sigma, P6188 powder):
The PGI2 stock solution of 1 mg/mL in 1 M KOH is stored in aliquots of 100 μL at −20° C. Immediately before use, a solution of 5 μg/mL in ice-cold 0.9% NaCl in MQ H2O is prepared. • 5. Human Fibrinogen (Kordia/ERL, art nr: FIB 2 powder):
0.5 g fibrinogen powder is dissolved in 50 mL MQ H2O under vacuum. This stock solution is stored in aliquots of 1 mL at −20° C. Before use, a solution of 0.5 mg/mL in saline is prepared.
Before use, a solution of 50 μM TRAP in 0.9% NaCl in MQ H2O is prepared. For each test, a fresh solution is made.
• 1. Sysmex cell counter model KX-21 • 2. Labsystems iEMS reader MF with a 405 nm filter, an orbital shaker set at 1,000 rpm and a constant temperature of 37° C. Absorptions are measured with the Labsystems iEMS program. • 3. Blood collection system 600 mL with needle, art nr P4203 (NPBI) • 4. 96 wells micro plates (Greiner Labortechnik) flat-bottom
Procedure: The WPL concentration is counted in a Sysmex blood cell counter and the suspension is diluted with Watson buffer to obtain a concentration of 400,000±50,000 plt/μL. Before use, WPL is allowed to stabilize at room temperature for at least 20 min but not longer than 3-4 hours.
TRAP-induced aggregation: 150 μL WPL is pipetted into a well of a micro plate. 15 μL test compound or vehicle and 15 μL fibrinogen solution is added and the micro plate is placed in the micro plate reader at 37° C. Then, the optical density (OD) is measured at 405 nm and after shaking for 2 min in the reader, the OD405 is measured again to verify the stability of the platelets (absence of spontaneous platelet aggregation). 20 μL of 50 μM TRAP is added and the OD405 is kinetically measured every min for 14 min at 405 nm. Between two measurements, the plate is shaking for 40 seconds at 1,000 rpm (FIG. 1). For determination of the IC50 of a test compound, each test compound is investigated in at least 2 experiments using WPL from different volunteers.
Evaluation of response: The mean OD of each concentration (including vehicle) is calculated at t=0 min and t=10 min. The percentage inhibition at each concentration is calculated using the formula: […]

[2] = system: human platelets (platelet rich plasma), ADP-induced aggregation; assay: In vitro test for inhibition of human platelet aggregation induced by ADP; assay type: cell-based; conditions: Platelet
From the text: I.a. In vitro Test for Inhibition of Human Platelet Aggregation Induced by ADP
Addition of adenosine diphosphate (ADP) to human platelet rich plasma (PRP) in vitro induces platelet aggregation. This aggregation can be assessed by measuring the optical density (OD) of the PRP. The in vitro test described here was used to determine the inhibitory activity of a test compound on the ADP-induced aggregation of human platelets. A micro plate reader is used to measure the activity of several compounds simultaneously.
as §1
Free-flowing blood (at least 100 mL) is taken from a healthy volunteer and collected in 0.1 volume 3.8% sodium citrate. 2H2O in distilled H2O (w/v). The final concentration is 0.38% sodium citrate.
The citrated blood is centrifuged at 1,600 N/kg (160 g) at RT. After 15 min, centrifugation is discontinued with the brake turned off and the supernatant (=PRP) is collected. • 2. ADP (Kordia/Chrono-par # 384). Before use, a solution of 50 μM in 0.9% NaCl is prepared. Equipment • 1. Sysmex blood cell counter model KX-21. • 2. Labsystems iEMS reader MF with a 620 nm filter, an orbital shaker set at 1,000 rpm and a constant temperature of 37° C. Absorption is measured with the Labsystems iEMS program. • 3. Blood collection system 600 mL with needle, art P4203 (NPBI). • 4. 96 wells flat bottom micro plates (Greiner Labortechnik). Procedure
The platelets in the supernatant (PRP) are counted using a Sysmex blood cell counter and the supernatant is diluted with PPP to obtain a PRP containing 400,000±50,000 plt/μL. PRP should stabilize at RT for at least 20 min but not longer than 3 h.
150 μL PRP is pipetted into a well of the micro plate. 30 μL test compound in a range of concentrations (7 concentrations per compound) or vehicle is added and the micro plate is placed in the Labsystems iEMS reader MF at 37° C. The optical density (OD620) is then measured at 620 nm. After shaking for 2 min in the reader (1,000 rpm), the OD is measured for the second time. This is to verify the stability of the platelets (absence of spontaneous platelet aggregation). Then, 20 μL of 50 μM ADP solution is added and the OD is kinetically measured every min for 14 min at 620 nm (FIG. 1). Between two measurements, the plate is shaking for 40 seconds at 1,000 rpm. Each test compound is investigated in at least 2 experiments using PRP from different volunteers.
The mean OD at each compound concentration (including vehicle) is calculated at t=0 min and t=10 min. The percentage inhibition at each concentration is calculated using the formula: […]
The IC50 of the test compound is the concentration of the test compound at which the ADP-induced platelet aggregation is reduced by 50%. For this, the percentage inhibition values are plotted against compound concentration. Then, IC50, nH (Hill slope) and efficacy of the test compound is calculated using Graphpad Prism 3.0 (with variable slope).
Reference: Salmon, D. M. (1996) Thrombosis Research 84, 213-216.

[3] = 5 μM TRAP, washed human platelets, mean of n experiments, entries marked b measured with a Chronolog aggregometer, others with micro plate reader, read-out: Inhibition of TRAP (5 μM)-induced human platelet aggregation (IC50), mean
[4] = 5 μM ADP, human PRP, mean of n experiments, entries marked b measured with a Chronolog aggregometer, others with micro plate reader, read-out: Inhibition of ADP-induced (5 μM) human platelet aggregation (IC50), mean

SMILES	IC50 [1, 3]	IC50 [2, 4]	IC50 ([1]; Homo sapiens, read-out: IC50, inhibition of human platelet aggregation induced by 5 μM TRAP (reference compound))	IC50 ([2]; Homo sapiens, read-out: IC50, inhibition of human platelet aggregation induced by 5 μM ADP (reference compound))
CC(C)(C)OC(=O)COCCOCCOCCOCCNC(=O)[C@H](Cc1ccccc1)NC(=O)[C@H](CC(=O)O)NC(=O)CCNC(=O)c1ccc(C(=N)N)cc1 [Compound I, tert-Butyl({N-(4-amidinobenzoyl)-β-alanyl}-L-aspartyl-L-phenylalanyl)-15-aza-3,6,9,12-tetraoxa-pentadecanoate]	220 nM	610 nM	–	–
CC(C)(C)OC(=O)COCCOCCOCCOCCNC(=O)[C@H](Cc1ccccc1)NC(=O)[C@H](CC(=O)O)NC(=O)CCC(=O)Nc1ccc(C(=N)N)cc1 [Compound IV, tert-Butyl N-{(4-benzamidino)-succinamyl}-L-aspartyl-L-phenylalanyl-15-aza-3,6,9,12-tetraoxa-pentadecanoate]	120 nM	350 nM	–	–
O=C(O)C[C@H](NC(=O)[C@@H]1CCCN(C(=O)CCC2CCNCC2)C1)C(=O)O [Compound VI, {N-3-[4-piperidinepropionyl]-(R)-(−)-nipecotyl}-L-aspartate]	6290 nM	22600 nM	–	–
CC(C)(C)OC(=O)COCCOCCOCCOCCNC(=O)[C@H](CC(=O)O)NC(=O)[C@@H]1CCCN(C(=O)CCC2CCNCC2)C1 [Compound VII, tert-Butyl N-{[N-3-(4-piperidinepropionyl)-(R)-(−)-nipecotyl]-L-aspartyl}-15-aza-3,6,9,12-tetraoxa-pentadecanoate]	270 nM	380 nM	–	–
CCCCS(=O)(=O)N[C@@H](Cc1ccc(OCCCCC2CCNCC2)cc1)C(=O)O [tirofiban, reference compound]	–	–	30 to 60 nM	30 to 60 nM

Second part, led by results:

IC50 [1, 3]	IC50 [2, 4]	SMILES	IC50 ([1]; Homo sapiens, read-out: IC50, inhibition of human platelet aggregation induced by 5 μM TRAP (reference compound))	IC50 ([2]; Homo sapiens, read-out: IC50, inhibition of human platelet aggregation induced by 5 μM ADP (reference compound))
250 nM	380 nM	CC(C)(C)OC(=O)COCCOCCOCCOCCNC(=O)[C@H](CC(=O)O)NC(=O)CCC(=O)Nc1ccc(C(=N)N)cc1 [III, tert-Butyl N-{(4-benzamidino)-succinamyl}-L-aspartyl-15-aza-3,6,9,12-tetraoxa-pentadecanoate]	–	–
–	1180 nM	CC(C)(C)OC(=O)COCCOCCOCCOCCNC(=O)[C@H](Cc1ccccc1)NC(=O)[C@H](CC(=O)O)NC(=O)[C@@H]1CCCN(C(=O)CCC2CCNCC2)C1 [IX, tert-Butyl N-{[N-3-(4-piperidinepropionyl)-(R)-(−)-nipecotyl]-L-aspartyl-L-phenylalanyl}-15-aza-3,6,9,12-tetraoxa-pentadecanoate]	–	–
1190 nM	2010 nM	N=C(N)c1ccc(NC(=O)CCC(=O)N[C@@H](CC(=O)O)C(=O)O)cc1 [XVIII, reference compound]	–	–
380 nM	310 nM	O=C(O)CCNC(=O)[C@@H]1CCCN(C(=O)CCC2CCNCC2)C1 [XX, reference compound]	–	–
